The values that follow come from US5773464A, “C-10 epoxy taxanes” (Bristol-Myers Squibb Company, priority 1997, dated 1998).

The subject of the assay is HCT-116 human colon carcinoma cells. The assay can be described thus: Cytotoxicity assay (MTS), 72 hour exposure. Type of assay: cell-based. The note with it: HCT-116, 72 h, read-out: Cytotoxicity Assay IC50 (nM) against HCT 116 Human colon tumor cell line. As to the method:
Cytoxicity was assessed in HCT-116 human colon carcinoma cells by MTS (3-(4,5-dimethylthiazol-2-yl)-5-(3-carboxymethoxyphenyl)-2-(4-sulphenyl)-2H-tetrazolium, inner salt) assay as reported in T. L. Riss, et. al., "Comparison of MTT, XTT, and a novel tetrazolium compound MTS for in vitro proliferation and chemosensitivity assays.," Mol. Biol. Cell 3 (Suppl.):184a, 1992. Cells were plated at 4,000 cell/well in 96 well microtiter plates and 24 hours later drugs were added and serial diluted. The cells were incubated at 37° form 72 hours at which time the tetrazolium dye, MTS at 333 μg/ml (final concentration), in combination with the electron coupling agent phenazine methosulfate at 25 μM (final concentration) was added. A dehydrogenase enzyme in live cells reduces the MTS to a form that absorbs light at […] which can be quantitated spectrophotometrically. The greater the absorbance the greater the number of live cells. The results are expressed as an IC50, which is the drug concentration required to inhibit cell proliferation (i.e. absorbance at 450 nm) to 50% of that of untreated control cells. The IC50 values for compounds evaluated in this assay are evaluated in Table I.
^1 Cytoxicity was determined after a 72 hour exposure by MTS assay.

Where [1] appears, read: 72 hour exposure, MTS assay, test comparing Ie with paclitaxel, run on a different day.

Broadly, the IC50 is the concentration that inhibits the measured activity by half.

Read-outs that look alike come from different tables or passages of the source.

For the compound `CC(=O)O[C@@]12CO[C@@H]1C[C@H](O)[C@@]1(C)C(=O)C3(CO3)C3=C(C)[C@@H](OC(=O)[C@H](O)[C@@H](NC(=O)c4ccccc4)c4ccccc4)C[C@@](O)([C@@H](OC(=O)c4ccccc4)[C@H]21)C3(C)C` (stereo partly shown) [Compound Ia], the half-maximal inhibitory concentration (IC50) came out at 2 nM. For `COCO[C@H]1C[C@H]2OC[C@@]2(OC(C)=O)[C@H]2[C@H](OC(=O)c3ccccc3)[C@]3(O)C[C@H](OC(=O)[C@H](O)[C@@H](NC(=O)c4ccccc4)c4ccccc4)C(C)=C(C4(CO4)C(=O)[C@]12C)C3(C)C` (stereo partly shown) [Compound Ie], the IC50 under setting [1] was 1.5 nM. Regarding `CC(=O)O[C@H]1C(=O)[C@@]2(C)[C@H]([C@H](OC(=O)c3ccccc3)[C@]3(O)C[C@H](OC(=O)[C@H](O)[C@@H](NC(=O)c4ccccc4)c4ccccc4)C(C)=C1C3(C)C)[C@]1(OC(C)=O)CO[C@@H]1C[C@@H]2O` [paclitaxel], the 50% inhibitory concentration (IC50) was found to be 2.9 nM (72 hour exposure, MTS assay, test comparing Ia with paclitaxel) and 1 nM under setting [1].
